Values of other authors, collected in patent US7799756B2, “Processes for stereoselective synthesis of trans ISATX247” (Albany Molecular Research, Inc., priority 2004, dated 2010).

Assays:
[1] = phase IIa, kidney transplantation, mixture of cis and trans isomers
[2] = over natural cyclosporins and presently known cyclosporin derivatives
[3] = compared to the corresponding cis-isomer
[4] = compared to the corresponding cis-isomer; remark: listed apart in the source

| Molecule | clinical trial outcome [1] | potency [2] | activity on immunosuppression [3] | therapeutic index [4] |
| --- | --- | --- | --- | --- |
| C=CC=CC[C@@H](C)[C@@H](O)C1C(=O)N[C@H](CC)C(=O)N(C)CC(=O)N(C)[C@@H](CC(C)C)C(=O)N[C@H](C(C)C)C(=O)N(C)[C@H](CC(C)C)C(=O)N[C@H](C)C(=O)N[C@@H](C)C(=O)N(C)[C@H](CC(C)C)C(=O)N(C)[C@H](CC(C)C)C(=O)N(C)[C@H](C(C)C)C(=O)N1C (stereo partly drawn) [ISATX247, cyclo {(E,Z)-(2S,3R,4R)-3-hydoxy-4-methyl-2-(methylamino)-6,8-nonadienoyl-L-2-aminobutyryl-N-methyl-glycyl-N -methyl-L-leucyl-L-valyl-N-methyl-L-leucyl-L-alanyl-D-alanyl-N-methyl-L-leucyl-N-methyl-L-leucyl-N-methyl-L-valyl}] | positive results | enhanced potency |  |  |
| trans ISATX247 |  |  | better activity on immunosuppression | improved therapeutic index |
